Reference: article PMC6006475 (2016)

Experiments:
[1] = test system: ds DNA (DNA, hairpin, HEG (hexaethylene glycol) linker between 10 and 11) TATAGCTATATATAGCTATA; assay: FRET melting; conditions: 1 µM BTC, highest tested
[2] = test system: c-MYC-(A) (DNA, G4) TGAGGGTGGGTAGGGTGGGTAA; assay: FRET melting; conditions: 0.2 µM BTC, SD ±5%
[3] = test system: c-MYC-(D) (DNA, G4) TGAGGGTGGGTAGGGTGGGTAA; assay: 1H NMR titration (imino region); conditions: 25 mM Tris-HCl, pH 7.4, 298 K, 100 µM DNA, binds minor conformation
[4] = test system: h-TELO-(A) (DNA, G4) GGGTTAGGGTTAGGGTTAGGG; assay: FRET melting; conditions: 0.4 µM BTC, SD ±5%
[5] = test system: h-TELO-(D) (DNA, G4) GGGTTAGGGTTAGGGTTAGGG; assay: 1H NMR titration (imino region); conditions: 25 mM Tris-HCl, pH 7.4, 298 K, 100 µM DNA
[6] = none (K+-free, MQ water), pH ~7
[7] = K+ (50 mM potassium cacodylate), pH 7.4, pre-annealed

ΔTm ([1]; K+ (50 mM potassium cacodylate), pH 7.4): 3 °C
ΔTm [1, 6]: 2.9 °C
ΔTm [2, 7]: 24.0 °C
ΔTm [2, 6]: 23.5 °C
binding ([3]; K+ (100 mM KCl)): yes
binding ([3]; none (K+-free)): yes
ΔTm [4, 7]: 38.7 °C
ΔTm [4, 6]: 38.5 °C
binding ([5]; K+ (100 mM KCl), weak shift perturbations): yes
binding ([5]; none (K+-free), partial folding promoted): yes
Structure (SMILES): CN(C)CCCNC(=O)c1ccc(-n2cc(-c3ccc4[nH]c5ccc(-c6cn(-c7ccc(C(=O)NCCCN(C)C)cc7)nn6)cc5c4c3)nn2)cc1
